# Key:
# lung cancer cells (A549) = assay: Evaluation of the pharmacological efficacy of an MMP-1 inhibitor using a microfluidic chip (lung cancer cell travel distance, vascular cell migration area); type: cell-based
# Protocol: In order to evaluate the efficacy of an anticancer medicine using a microfluidic chip, lung cancer cells (A549, ATCC) were seeded into a microfluidic chip using the same method as in Example 1. Secondarily, vascular cells were seeded (day 0).
# [1] = test system: pancreatic cancer cells (Mia Paca-2); assay: Evaluation of the pharmacological efficacy of gemcitabine using a microfluidic chip (spread range of cancer cells); type: cell-based
# Protocol: In order to evaluate the efficacy of an anticancer medicine using a microfluidic chip, pancreatic cancer cells (Mia Paca-2, ATCC) were seeded into a microfluidic chip using the same method as in Example 2. Secondarily, vascular cells (HUVEC, purchased from ATCC) were seeded. Once the cells were confirmed to be attached (day 0: cell seeding date), gemcitabine (Eli Lilly and Company, USA) was administered 3 days later to measure the spread range of the cancer cells. As shown in FIGS. 20A to 20C, the growth and development of cells were observed from the time of cell seeding (day 0) to the 7th day after the drug treatment (day 3). For observation of the cells, an optical microscope image (EVOS, LifeScience, 100 magnification) and a fluorescence microscope image (EVOS, LifeScience, 100 magnification) were superposed. FIGS. 20B and 20C show the results of observation of the cell development using an optical microscope and a fluorescence microscope. The eight images of FIG. 20B, labeled as normal cultures, were those treated with DMSO at day 3 and observed up to day 7. The eight pictures of FIG. 20C, labeled drug treatment, were those treated with gemcitabine on day 3 and observed up to day 7. FIG. 20A is a graph in which the growth width of the cancer cells was statistically quantified from FIGS. 20B and 20C using an Origin […] […]
# [2] = A549 with vascular cells in microfluidic chip, inhibitor given 1 day after seeding, increasing concentration (10 μM, 50 μM, 100 μM)
SMILES,metastatic process of lung cancer cells (lung cancer cells (A549); A549 cultured in the cell culture device (microfluidic chip)),migration area of the vascular cells (lung cancer cells (A549); [2]),travel distance of the lung cancer cells (lung cancer cells (A549); [2]),"distribution area of the cancer cells ([1]; Mia Paca-2 co-seeded with HUVEC in microfluidic chip, drug on day 3, observed up to day 7, compared with cells not treated with gemcitabine (DMSO))","growth of pancreatic cancer cells ([1]; Mia Paca-2 in microfluidic chip, gemcitabine on day 3, observed up to day 7)"
CNC(=O)[C@H](Cc1c[nH]c2ccccc12)NC(=O)[C@@H](CC(=O)NO)CC(C)C [MMP-1 inhibitor],inhibits the metastatic process of lung cancer cells,reduced,gradually reduced,–,–
"Nc1ccn([C@@H]2O[C@H](CO)[C@@H](O)C2(F)F)c(=O)n1 [gemcitabine, 4-amino-1-(2-deoxy-2,2-difluoro-β-D-erythro-pentofuranosyl)pyrimidin-2(1H)-on]",–,–,–,decreased,inhibits the growth of pancreatic cancer cells
